Assay results reported in paper PMC6940986, “Structural Insights into the Intracellular Region of the Human Magnesium Transport Mediator CNNM4” (International Journal of Molecular Sciences, 2019).

Molecular target: T1, hCNNM4BAT (CNNM4BAT) (Homo sapiens, UniProt Q6P4Q7)
T1 construct: gene CNNM4; Bateman module (CBS1-CBS2) with helix H0; for NMR U-15N, N-terminal His6-V5-TEV site tag (pET151-D/TOPO), tag cleavage not described; E. coli BL21 CodonPlus; homodimer (CBS module)
Assay: 2D […]-HSQC NMR titration; 1H STD NMR
Format: binding
Details: estimated; no Mg2+ added; 100 mM HEPES, pH 7.4 preset (7.2 in results), 100 mM NaCl, 298 K; 100 uM protein

T1 sequence (Q6P4Q7 359-511): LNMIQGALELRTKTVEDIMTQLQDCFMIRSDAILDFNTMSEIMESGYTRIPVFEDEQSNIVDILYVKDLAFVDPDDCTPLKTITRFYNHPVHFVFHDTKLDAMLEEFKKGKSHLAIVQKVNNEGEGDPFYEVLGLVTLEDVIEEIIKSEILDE

KD: ~ 10^−2 to 10^−3 M
SMILES: Nc1ncnc2c1ncn2[C@@H]1O[C@H](COP(=O)(O)OP(=O)(O)NP(=O)(O)O)[C@@H](O)[C@H]1O [ADPNP]
